The test system of assay [1] is Pyricularia oryzae. Put plainly: whole plant or invertebrate. Format: in vivo. To be noted: foliar, read-out: Control value (number of lesions at the second leaf).
Assay [2] deals with Pyricularia oryzae. Put plainly: whole plant or invertebrate. To be noted: soil, read-out: Control value (number of lesions at the second leaf). The assay is classed as in vivo.

Pest or weed control data for 53 compounds are collected here from patent publication US12156523B2 (priority 2017, dated 2024).

Molecules are shown by their SMILES.

For the compound `CCc1ccccc1NC(=O)c1cc(F)nc(F)c1` [Example 1-169], the pest or weed control at 200 ppm in the assay with Pyricularia oryzae [1] was at least 80%. In addition, the pest or weed control at 10 µg/mL with Pyricularia oryzae [2] is at least 80%.

In the case of `COc1ccccc1OC(=O)c1cc(F)nc(F)c1` [Example 1-210], in the assay with Pyricularia oryzae [1], the pest or weed control at 200 ppm was at least 80%. The pest or weed control at 10 µg/mL in the assay on Pyricularia oryzae [2] was at least 80%.

As to `O=C(Nc1cccc(C(F)(F)F)c1)c1cc(F)nc(F)c1` [Example 1-191], the pest or weed control at 200 ppm in the assay on Pyricularia oryzae [1] is at least 80%. For the same compound, the pest or weed control at 10 µg/mL in the assay with Pyricularia oryzae [2] was at least 80%.

On to `O=C(Oc1ccccc1)c1cc(F)nc(F)c1F` [Example 1-129], for which, in the assay with Pyricularia oryzae [1], the pest or weed control at 200 ppm is at least 80%.

With `O=C(Nc1ccccc1[N+](=O)[O-])c1cc(F)nc(F)c1` [Example 1-173], in the assay on Pyricularia oryzae [1], the pest or weed control at 200 ppm was at least 80%. Moreover, in the assay on Pyricularia oryzae [2], the pest or weed control at 10 µg/mL was at least 80%.

In the case of `Cc1ccc(NC(=O)c2cc(F)nc(F)c2)cc1` [Example 1-170], the pest or weed control at 200 ppm in the assay with Pyricularia oryzae [1] is at least 80%. The pest or weed control at 10 µg/mL in the assay on Pyricularia oryzae [2] was at least 80%.

Turning to `O=C(Oc1cccc2ccccc12)c1cc(F)nc(F)c1` [Example 1-202], the pest or weed control at 200 ppm in the assay with Pyricularia oryzae [1] was at least 80%. For the same compound, in the assay on Pyricularia oryzae [2], the pest or weed control at 10 µg/mL was at least 80%.

On to `O=C(Nc1ccc(C(F)(F)F)cc1)c1cc(F)nc(F)c1` [Example 1-139], for which, in the assay with Pyricularia oryzae [1], the pest or weed control at 25 ppm was at least 80% and the pest or weed control at 200 ppm is at least 80%. For the same compound, in the assay with Pyricularia oryzae [2], the pest or weed control at 10 µg/mL was at least 80%.

As for `O=C(Nc1cc(Cl)c(Cl)c(Cl)c1)c1cc(F)nc(F)c1F` [Example 1-19], the pest or weed control at 25 ppm in the assay on Pyricularia oryzae [1] is at least 80%. Moreover, the pest or weed control at 10 µg/mL in the assay on Pyricularia oryzae [2] was at least 80%.

For `O=C(Nc1cccc(O)c1)c1cc(F)nc(F)c1` [Example 1-193], the pest or weed control at 200 ppm with Pyricularia oryzae [1] was at least 80%. The pest or weed control at 10 µg/mL in the assay on Pyricularia oryzae [2] is at least 80%.

For the compound `CC(C)Oc1ccc(NC(=O)c2cc(F)nc(F)c2)cc1` [Example 1-137], in the assay on Pyricularia oryzae [1], the pest or weed control at 200 ppm was at least 80%. Also, in the assay with Pyricularia oryzae [2], the pest or weed control at 10 µg/mL is at least 80%.

As to `COc1ccccc1NC(=O)c1cc(F)nc(F)c1` [Example 1-131], the pest or weed control at 200 ppm in the assay on Pyricularia oryzae [1] is at least 80%.

Regarding `CC(=O)Oc1ccccc1COC(=O)c1cc(F)nc(F)c1F` [Example 1-102], the pest or weed control at 200 ppm in the assay on Pyricularia oryzae [1] is at least 80%. Further, in the assay with Pyricularia oryzae [2], the pest or weed control at 10 µg/mL is at least 80%.

Turning to `O=C(NC(=O)c1cc(F)nc(F)c1F)c1ccccc1` [Example 1-93], the pest or weed control at 200 ppm in the assay with Pyricularia oryzae [1] is at least 80%. For the same compound, the pest or weed control at 10 µg/mL in the assay with Pyricularia oryzae [2] is at least 80%.

As to `O=C(Nc1ccncc1)c1cc(F)nc(F)c1` [Example 1-172], in the assay with Pyricularia oryzae [1], the pest or weed control at 25 ppm was at least 80% and the pest or weed control at 200 ppm is at least 80%.

As for `O=C(Nc1cccc(Cl)c1)c1cc(F)nc(F)c1F` [Example 1-32], the pest or weed control at 200 ppm in the assay on Pyricularia oryzae [1] is at least 80%. The pest or weed control at 10 µg/mL in the assay with Pyricularia oryzae [2] is at least 80%.

On to `O=C(OCc1ccccc1)c1cc(F)nc(F)c1` [Example 1-183], for which the pest or weed control at 200 ppm with Pyricularia oryzae [1] was at least 80%. Besides, the pest or weed control at 10 µg/mL with Pyricularia oryzae [2] was at least 80%.

Take `Cc1ccc(NC(=O)c2cc(F)nc(F)c2F)cc1Cl` [Example 1-30]: the pest or weed control at 25 ppm in the assay with Pyricularia oryzae [1] was at least 80%. Moreover, in the assay on Pyricularia oryzae [2], the pest or weed control at 10 µg/mL was at least 80%.

In the case of `COc1ccc(NC(=O)c2cc(F)nc(F)c2)cc1` [Example 1-138], the pest or weed control at 200 ppm in the assay with Pyricularia oryzae [1] is at least 80%.

Turning to `CC(C)c1ccccc1NC(=O)c1cc(F)nc(F)c1` [Example 1-177], in the assay with Pyricularia oryzae [1], the pest or weed control at 200 ppm is at least 80%.

With `Cc1ccc(NC(=O)c2cc(F)nc(F)c2F)cc1[N+](=O)[O-]` [Example 1-64], the pest or weed control at 10 µg/mL in the assay with Pyricularia oryzae [2] was at least 80%.

For the compound `CSc1cccc(NC(=O)c2cc(F)nc(F)c2)c1` [Example 1-192], the pest or weed control at 10 µg/mL with Pyricularia oryzae [2] is at least 80%.

For `O=C(OC/C=C/COC(=O)c1cc(F)nc(F)c1F)c1cc(F)nc(F)c1F` [Example 1-152], the pest or weed control at 10 µg/mL with Pyricularia oryzae [2] was at least 80%.

For `O=C(Oc1ccccc1F)c1cc(F)nc(F)c1` [Example 1-211], the pest or weed control at 10 µg/mL in the assay with Pyricularia oryzae [2] is at least 80%.

Consider `O=C(OCc1ccccc1Cl)c1cc(F)nc(F)c1F` [Example 1-100], for which the pest or weed control at 10 µg/mL in the assay with Pyricularia oryzae [2] was at least 80%.

As to `O=C(Nc1ccccc1)c1cc(F)nc(F)c1` [Example 1-143], the pest or weed control at 10 µg/mL with Pyricularia oryzae [2] is at least 80%.

Regarding `CCOC(=O)c1ccnc(C(F)(F)F)c1` [Example 1-147], the pest or weed control at 10 µg/mL in the assay on Pyricularia oryzae [2] was at least 80%.

In the case of `C=CCNC(=O)c1cc(F)nc(F)c1` [Example 1-159], the pest or weed control at 10 µg/mL in the assay with Pyricularia oryzae [2] is at least 80%.

In the case of `O=C(Oc1ccccc1)c1cc(F)nc(F)c1` [Example 1-218], the pest or weed control at 10 µg/mL with Pyricularia oryzae [2] is at least 80%.

As for `CNC(=O)c1cc(F)nc(F)c1F` [Example 1-92], the pest or weed control at 10 µg/mL with Pyricularia oryzae [2] was at least 80%.

As to `CC(=O)OCc1cc(F)nc(F)c1F` [Example 3-1], the pest or weed control at 10 µg/mL in the assay on Pyricularia oryzae [2] is at least 80%.

For `CC(=O)Oc1ccccc1COC(=O)c1cc(F)nc(F)c1` [Example 1-145], the pest or weed control at 10 µg/mL in the assay on Pyricularia oryzae [2] was at least 80%.

For the compound `O=C(Nc1cccc(Cc2ccccc2)c1)c1cc(F)nc(F)c1F` [Example 1-27], the pest or weed control at 10 µg/mL in the assay on Pyricularia oryzae [2] was at least 80%.

For `O=C(Oc1ccc([N+](=O)[O-])cc1)c1cc(F)nc(F)c1F` [Example 1-112], the pest or weed control at 10 µg/mL in the assay with Pyricularia oryzae [2] was at least 80%.

For the compound `O=C(Nc1cccc(Cl)c1Cl)c1cc(F)nc(F)c1F` [Example 1-5], in the assay on Pyricularia oryzae [2], the pest or weed control at 10 µg/mL is at least 80%.

As to `CC(NC(=O)c1cc(F)nc(F)c1F)c1ccccc1` (stereo not shown) [Example 1-85], the pest or weed control at 10 µg/mL in the assay on Pyricularia oryzae [2] was at least 80%.

With `CC(C)(C)Oc1ccc(NC(=O)c2cc(F)nc(F)c2F)cc1` [Example 1-70], the pest or weed control at 10 µg/mL in the assay with Pyricularia oryzae [2] is at least 80%.

With `N#Cc1ccc(OC(=O)c2cc(F)nc(F)c2F)cc1` [Example 1-108], the pest or weed control at 10 µg/mL with Pyricularia oryzae [2] is at least 80%.

Turning to `O=C(Nc1ccc(F)c(Cl)c1)c1cc(F)nc(F)c1F` [Example 1-29], the pest or weed control at 10 µg/mL with Pyricularia oryzae [2] is at least 80%.

In the case of `CCCCCCCCCCCCOC(=O)c1cc(F)nc(F)c1` [Example 1-214], the pest or weed control at 10 µg/mL with Pyricularia oryzae [2] was at least 80%.

Take `CCOC(=O)c1cccc(NC(=O)c2cc(F)nc(F)c2F)c1` [Example 1-37]: the pest or weed control at 10 µg/mL in the assay on Pyricularia oryzae [2] is at least 80%.

For `Cc1cnc(NC(=O)c2cc(F)nc(F)c2F)s1` [Example 1-74], the pest or weed control at 10 µg/mL with Pyricularia oryzae [2] is at least 80%.

Turning to `C#CCOC(=O)c1cc(F)nc(F)c1F` [Example 1-119], the pest or weed control at 10 µg/mL with Pyricularia oryzae [2] is at least 80%.

Consider `N#Cc1ccc(NC(=O)c2cc(F)nc(F)c2F)cc1` [Example 1-55], for which, in the assay with Pyricularia oryzae [2], the pest or weed control at 10 µg/mL is at least 80%.

On to `Cc1cc(NC(=O)c2cc(F)nc(F)c2F)ccc1F` [Example 1-58], for which the pest or weed control at 10 µg/mL in the assay with Pyricularia oryzae [2] is at least 80%.

In the case of `Cn1cccc1C(=O)c1cc(F)nc(F)c1F` [Example 2-2], in the assay on Pyricularia oryzae [2], the pest or weed control at 10 µg/mL is at least 80%.

Take `CCOc1cccc(NC(=O)c2cc(F)nc(F)c2F)c1` [Example 1-38]: the pest or weed control at 25 ppm with Pyricularia oryzae [1] was at least 80%.

Take `O=C(OC/C=C/c1ccccc1)c1cc(F)nc(F)c1F` [Example 1-124]: the pest or weed control at 10 µg/mL in the assay with Pyricularia oryzae [2] was at least 80%.

With `CN(C(=O)c1cc(F)nc(F)c1F)c1ccccc1` [Example 1-2], the pest or weed control at 10 µg/mL with Pyricularia oryzae [2] was at least 80%.

In the case of `O=C(NC1=NCCS1)c1cc(F)nc(F)c1F` [Example 1-12], the pest or weed control at 10 µg/mL with Pyricularia oryzae [2] is at least 80%.

As for `CCCCCCOC(=O)c1cc(F)nc(F)c1` [Example 1-213], the pest or weed control at 10 µg/mL in the assay with Pyricularia oryzae [2] is at least 80%.

Turning to `O=C(Nc1cc(Cl)cc(Cl)c1)c1cc(F)nc(F)c1F` [Example 1-24], in the assay on Pyricularia oryzae [2], the pest or weed control at 10 µg/mL is at least 80%.

With `CC(C)Oc1cccc(NC(=O)c2cc(F)nc(F)c2F)c1` [Example 1-41], in the assay on Pyricularia oryzae [1], the pest or weed control at 25 ppm was at least 80%.
